Several values for one entry are separate records, joined by “and”; a condition that tells them apart may be missing. Equal entries are not always repeated. Blank lines part the entries; values can stand above or below the compound they belong to.
Key:
[1] = target: T1, Gal4 DBD-AR1-558 (AR NTD) (Homo sapiens, UniProt P10275); assay: Transactivation of the AR NTD (Gal4 DBD-AR1-558 with 5xGal4UAS-luciferase) in LNCaP cells; format: cell-based; details: for inhibition at 20 µM: read-out: inhibition of Fsk activation of Ga14ARN
T1 construct: cloning amino acids 1-558 of the human AR NTD into the C-terminus of Gal4 DBD; expressed in transfected cells; host or cells: LNCaP
T1 sequence (P10275 1-558): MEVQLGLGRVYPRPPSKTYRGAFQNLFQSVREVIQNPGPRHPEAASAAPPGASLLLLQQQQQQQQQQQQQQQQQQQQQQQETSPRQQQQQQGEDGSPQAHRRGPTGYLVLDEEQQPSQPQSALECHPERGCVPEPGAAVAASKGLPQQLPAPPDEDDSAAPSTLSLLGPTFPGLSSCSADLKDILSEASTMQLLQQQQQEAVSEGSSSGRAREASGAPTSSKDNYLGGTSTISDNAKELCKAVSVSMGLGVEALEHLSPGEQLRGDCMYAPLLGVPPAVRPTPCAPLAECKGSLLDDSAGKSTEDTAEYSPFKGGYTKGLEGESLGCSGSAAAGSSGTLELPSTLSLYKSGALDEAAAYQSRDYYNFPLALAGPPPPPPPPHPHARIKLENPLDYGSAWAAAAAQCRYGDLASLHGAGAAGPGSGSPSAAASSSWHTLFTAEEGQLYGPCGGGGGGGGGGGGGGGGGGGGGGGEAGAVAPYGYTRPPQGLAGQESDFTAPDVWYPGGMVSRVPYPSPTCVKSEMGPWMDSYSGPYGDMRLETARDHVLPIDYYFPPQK
Description: These fractions were next tested for their ability to inhibit the AR NTD. […] Extracts identified above were screened by such assays as well as some compounds purchased from commercial suppliers.
Expression vectors for these chimeric proteins were cotransfected into LNCaP cells with a reporter gene containing the Gal4-binding site as cis-acting elements (p5×Gal4UAS-TATA-luciferase).

[2] = target: T2, AR (Homo sapiens, UniProt P10275, T878A); assay: PSA (6.1 kb)-luciferase (p6.1luc) reporter in LNCaP cells; format: cell-based; parameters: LNCaP cells express endogenous AR and secrete prostate-specific antigen (PSA); endogenous in cells; host or cells: LNCaP
T2 sequence (P10275 1-920 T878A): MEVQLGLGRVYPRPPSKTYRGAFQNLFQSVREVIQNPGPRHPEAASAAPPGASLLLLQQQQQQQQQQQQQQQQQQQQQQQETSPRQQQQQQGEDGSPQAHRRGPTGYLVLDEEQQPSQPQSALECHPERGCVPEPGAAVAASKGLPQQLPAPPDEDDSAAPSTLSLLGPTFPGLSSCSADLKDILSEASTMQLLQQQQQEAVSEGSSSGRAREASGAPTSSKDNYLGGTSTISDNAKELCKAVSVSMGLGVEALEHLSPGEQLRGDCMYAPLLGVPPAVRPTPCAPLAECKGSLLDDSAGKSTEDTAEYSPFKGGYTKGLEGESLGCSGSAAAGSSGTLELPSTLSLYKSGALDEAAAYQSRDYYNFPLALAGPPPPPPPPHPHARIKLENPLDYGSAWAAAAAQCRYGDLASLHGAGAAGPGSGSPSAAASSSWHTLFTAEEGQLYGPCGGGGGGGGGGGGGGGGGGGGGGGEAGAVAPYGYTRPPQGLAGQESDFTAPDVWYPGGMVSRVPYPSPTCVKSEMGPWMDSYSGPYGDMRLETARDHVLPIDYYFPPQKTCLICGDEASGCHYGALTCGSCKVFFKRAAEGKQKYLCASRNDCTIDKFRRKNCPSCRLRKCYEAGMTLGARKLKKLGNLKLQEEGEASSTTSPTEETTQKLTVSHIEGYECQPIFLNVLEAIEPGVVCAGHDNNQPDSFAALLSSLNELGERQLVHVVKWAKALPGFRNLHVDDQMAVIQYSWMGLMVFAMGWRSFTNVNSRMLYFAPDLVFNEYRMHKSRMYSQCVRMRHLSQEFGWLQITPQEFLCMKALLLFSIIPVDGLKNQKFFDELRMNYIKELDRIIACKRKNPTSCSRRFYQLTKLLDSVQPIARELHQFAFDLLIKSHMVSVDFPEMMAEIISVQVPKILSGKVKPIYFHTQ
Description: LNCaP cells were employed initially for all experiments because they are well-differentiated human prostate cancer cells in which ligand-independent activation of the AR by FSK has been characterized (Nazareth et al 1996 J. Biol. Chem. 271, 19900-19907; and Sadar 1999 J. Biol. Chem. 274, 7777-7783). LNCaP cells express endogenous AR and secrete prostate-specific antigen (PSA) (Horoszewicz et al 1983 Cancer Res. 43, 1809-1818). LNCaP cells can be grown either as monolayers in cell culture or as tumors in the well-characterized xenograft model that progresses to androgen independence in castrated hosts (Sato et al 1996 J. Steroid Biochem. Mol. Biol. 58, 139-146; Gleave et al 1991 Cancer Res. 51, 3753-3761; Sato et al 1997 Cancer Res. 57, 1584-1589; and Sadar et al 2002 Mol. Cancer. Ther. 1(8), 629-637). […] Small molecules that specifically target the AR-NTD should have no effect on PC3 cells. This means that they should not alter the proliferation of PC3 cells if they specifically block the AR to mediate their inhibitory effects. R1881 was employed since it is stable and avoids problems associated with the labile physiological ligand dihydrotestosterone (DHT). Reporter specificity may be determined using several alternative reporter gene constructs. Some well characterized ARE-driven reporter gene constructs that have been used extensively are the PSA (6.1 kb) enhance/promoter which contains several AREs and is highly inducible by androgens as well as by FSK (Ueda et al 2002 A J. Biol. Chem. 277, 7076-7085) and the ARR3-thymidine kinase (tk)-luciferase, which is an artificial reporter construct that contains three tandem repeats of the rat probasin ARE1 and ARE2 regions upstream of a luciferase reporter (Snoek et al 1996 J. Steroid Biochem. Mol. Biol. 59, 243-250).
To ensure that the inhibitory effects of PNG 01-185 extract on endogenous PSA protein was at the transcriptional level, reporter gene constructs were also examined. Activation of the endogenous AR was measured in LNCaP human prostate cancer cells by measuring androgen-responsive reporters that contain androgen response elements (AREs) such as the PSA-luciferase reporter gene construct or the ARR3-luciferase reporter. LNCaP cells maintained as monolayers were transfected with PSA-luciferase and were used to screen the crude extracts prepared from marine sponges as well as some selected commercial compounds. […] R1881 (1 nM) was used to mediate ligand-dependent activation of the AR and concentrations of FSK (50 μM) were used to mediate ligand-independent activation of the AR.

[3] = target: T2, AR; assay: ARR3-luciferase reporter in LNCaP cells; format: cell-based; parameters: LNCaP cells express endogenous AR and secrete prostate-specific antigen (PSA); endogenous in cells; host or cells: LNCaP; details: read-out: inhibition of R1881 activation of ARR31uc
Description: LNCaP cells were employed initially for all experiments because they are well-differentiated human prostate cancer cells in which ligand-independent activation of the AR by FSK has been characterized (Nazareth et al 1996 J. Biol. Chem. 271, 19900-19907; and Sadar 1999 J. Biol. Chem. 274, 7777-7783). LNCaP cells express endogenous AR and secrete prostate-specific antigen (PSA) (Horoszewicz et al 1983 Cancer Res. 43, 1809-1818). LNCaP cells can be grown either as monolayers in cell culture or as tumors in the well-characterized xenograft model that progresses to androgen independence in castrated hosts (Sato et al 1996 J. Steroid Biochem. Mol. Biol. 58, 139-146; Gleave et al 1991 Cancer Res. 51, 3753-3761; Sato et al 1997 Cancer Res. 57, 1584-1589; and Sadar et al 2002 Mol. Cancer. Ther. 1(8), 629-637). […] Reporter specificity may be determined using several alternative reporter gene constructs. […]
To ensure that the inhibitory effects of PNG 01-185 extract on endogenous PSA protein was at the transcriptional level, reporter gene constructs were also examined. Activation of the endogenous AR was measured in LNCaP human prostate cancer cells by measuring androgen-responsive reporters that contain androgen response elements (AREs) such as the PSA-luciferase reporter gene construct or the ARR3-luciferase reporter. […]

[4] = system: LNCaP xenografts; assay: LNCaP subcutaneous xenografts in castrated mice; format: in vivo, NOD-SCID male mice; details: castrated mice
Method: Six to eight-week old male athymic SCID mice were inoculated subcutaneously in the flank region via a 27-gauge needle with a 150 μl suspension of LNCaP or PC3 human prostate cancer cells (1×10^6 cells). The inoculations took place while the animal was under isofluorane anaesthesia. The tumor take rate is approximately 75%. Mice bearing tumors of 100 mm^3 were randomly assigned to treatment groups. Castration was performed as described below. Tumor volume (formula: L×W×H×0.5236) was measured in mice bearing LNCaP subcutaneous tumors that became palpable or visible and at least 40 mm^3. The animals were monitored daily and tumors were measured every 5 days.

[5] = LNCaP, at 12.5 μM, read-out: inhibition of R1881 activation of p6.1luc

- inhibition at 20 µM ([1]; LNCaP): 7%
- inhibition at 12.5 µM [2, 5]: 20%
- inhibition at 20 µM ([2]; LNCaP, at 20 μM, read-out: inhibition of R1881 activation of p6.1luc): 33%
SMILES: CC(C)(c1ccc(OCC(O)CO)cc1)c1ccc(OCC(O)CI)cc1 (centres unmarked)

- inhibition at 20 µM ([1]; LNCaP): 33%
- inhibition at 12.5 µM [2, 5]: 35%
- inhibition of R1881 activation of p6.1luc ([2]; at 12.5 μM): 33%
SMILES: CC(C)(c1ccc(OCC(O)CI)cc1)c1ccc(OCC(O)CI)cc1 (centres unmarked) [drawing 125]

- inhibition of R1881 activation of p6.1luc ([2]; at 12.5 μM): 42% and 29%
SMILES: CC(C)(c1ccc(OCC(O)CI)cc1)c1ccc(OCC(O)CI)cc1 (centres unmarked) [drawing 126]

Continued, compound first:

SMILES: CC(C)(c1ccc(OCC(O)CO)cc1)c1ccc(OCC(O)CO)cc1 (centres unmarked)
- inhibition at 50 µM [3]: 10%

SMILES: CC(C)(c1ccc(OCC(O)CCl)cc1)c1ccc(OCC(O)CCl)cc1 (racemic) [BADGE.2HCl, Racemic BADGE×2HCl]
- LNCaP tumor volume at start of treatment, intratumoral ([4]; I.T. delivery): 109.6±17.4 mm^3
- size of LNCaP xenograft tumors, intratumoral injection ([4]; I.T. every 5 days, 20 mg/kg body weight): reduced the size of the tumors
- LNCaP tumor volume at the duration (end) of the experiment, intratumoral ([4]; i.t. every 5 days, five doses): 79.0±63.6 mm^3

SMILES: CC(C)(c1ccc(OCC(O)CCl)cc1)c1ccc(OCC(O)CCl)cc1 (centres unmarked) [drawing 123]
- inhibition at 12.5 µM ([1]; LNCaP, read-out: inhibition of Fsk activation of Ga14ARN, at 12.5 μM): 79%
- inhibition at 12.5 µM [2, 5]: 69%
- inhibition of R1881 activation of p6.1luc ([2]; at 12.5 μM): 63%

SMILES: CC(C)(c1ccc(OCC(O)CCl)cc1)c1ccc(OCC(O)CCl)cc1 (centres unmarked) [drawing 124]
- inhibition of Fsk activation of Ga14ARN ([1]; at 12.5 μM): 88%
- inhibition of R1881 activation of p6.1luc ([2]; at 12.5 μM): 55%
- inhibition of R1881 activation of p6.1luc ([2]; concentration not given): 34.8%
